Assay results published in patent publication US12410152B2, “Oxazole and thioazole-type cullin ring ubiquitin ligase compounds and uses thereof” (Proxygen GmbH, priority 2019, dated 2025).

Assays:
KBM7 CUL4Bmut cells = test: cells; type: cell-based
Description: (§1) KBM7 cells with the specified genetic backgrounds were grown in IMDM supplemented with 10% FBS and 1% penicillin/streptomycin (pen/strep). AsPC1, HCT116, NCI-H446 and 293T cells were grown in DMEM 10% FBS and 1% pen/strep. MV4; 11, Jurkat and Be (2) C cells were grown in RPMI 10% FBS 1% pen/strep. KBM7, AsPC1 and HCT116 cells expressing Cas9 were generated using the plasmid Lenti_Cas9_Blasti (Addgene #52962). The lentiviral plasmid lentiGuide-Puro (Addgene #52963) was used to express sgRNAs against the genes UBE2M (in KBM7-Cas9, AsPC1-Cas9 and HCT116-Cas9 cells), UBE2G1 (in KBM7-Cas9 cells) and […] (in KBM7-Cas9 cells). The lentiviral plasmid lentiGuide-Puro-IRES-mCherry (modified from Addgene #52963) was used to express sgRNAs against CUL4A (in KBM7-Cas9 cells). The lentiviral plasmid pLenti-PGK-Hygro-DEST-UBE2M was generated by Gateway cloning (empty destination vector Addgene #19066), and used to generate UBE2M^resc KBM7 cells. […]
(§2) Finally, a total of structurally similar analogs was tested to unravel structure-activity relationship of the identified molecules. To that end, their anti-cancer activity was assayed in WT cells, as well as KBM7 cells deficient in genes identified in the genome-wide CRISPR screens (UBE2M, CUL4B, UBE2G1). Moreover, the compounds were also tested in AsPC1 pancreatic cancer cells (WT or UBE2Mmut), MV4; 11 and Jurkat leukemia cells, Be (2) C neuroblastoma cells, and NCI-H446 lung cancer cells (Table 3 at the end of this document)
(§3) KBM7^WT, mutant KBM7 clones (UBE2M^mut, UBE2M^resc, UBE2G1^mut CUL4A^mut, CUL4B^mut), and 3-day doxycycline pretreated KBM7^iCas9_sgDDB1 cells were seeded at a cell density of 50,000 cells/mL in 96-well plates with DMSO or drug, in triplicates. Drugs used: IC020772.1/IC020772.1X, IC021313.2/IC021313.2X, T6938051/T6938051X or THZ531. Cells were treated for 3 days, after which cell viability was assessed according to manufacturer's protocol (CellTiter Glo, Promega G7570). Survival curves and EC50 values were calculated by best-fit analysis of the log 10 drug concentration to fold change of drug-treated cells over DMSO-treated cells. All survival assays included technical triplicates per sample, per experiment.

KBM7 UBE2G1mut cells = test: cells; type: cell-based
Description: as §1, §2, §3

UBE2Mresc KBM7 cells = test: Cell viability assay, KBM7 UBE2M rescue (UBE2M cDNA re-introduced); type: cell-based, human; conditions: Table 1, data of FIG. 4; 3-day treatment; read-out: LC50 UBE2Mresc
Description: KBM7 cells with the specified genetic backgrounds were grown in IMDM supplemented with 10% FBS and 1% penicillin/streptomycin (pen/strep). AsPC1, HCT116, NCI-H446 and 293T cells were grown in DMEM 10% FBS and 1% pen/strep. MV4; 11, Jurkat and Be (2) C cells were grown in RPMI 10% FBS 1% pen/strep. KBM7, AsPC1 and HCT116 cells expressing Cas9 were generated using the plasmid Lenti_Cas9_Blasti (Addgene #52962). The lentiviral plasmid lentiGuide-Puro (Addgene #52963) was used to express sgRNAs against the genes UBE2M (in KBM7-Cas9, AsPC1-Cas9 and HCT116-Cas9 cells), UBE2G1 (in KBM7-Cas9 cells) and […] (in KBM7-Cas9 cells). The lentiviral plasmid lentiGuide-Puro-IRES-mCherry (modified from Addgene #52963) was used to express sgRNAs against CUL4A (in KBM7-Cas9 cells). The lentiviral plasmid pLenti-PGK-Hygro-DEST-UBE2M was generated by Gateway cloning (empty destination vector Addgene #19066), and used to generate UBE2M^resc KBM7 cells.
Indeed, >20 compounds were identified that fulfilled this criteria. […] The initial screening assay was conducted at two concentrations (10 μM and 500 nM). The dose ranging differential effect of these four hits was assessed/validated, comparing their activity in KBM7WT vs UBE2MMUT cells. […] A genetic rescue experiment, where UBE2M cDNA was re-introduced into the UBE2Mmut clone (UBE2Mresc), did (at least partically) reconstitute the initial sensitivity to the assessed compounds (FIG. 4, Table 1).
as §3, with “All survival assays included technical triplicates per sample, per experiment.” left out

[1] = tested on: KBM7 WT and UBE2Mmut cells; test: Primary phenotypic screen, differential viability KBM7 WT vs UBE2M mutant; type: cell-based, human; conditions: 10 μM and 500 nM, 3 days
Description: Following this observation, it was rationalized that novel small molecule degraders can be identified in an unbiased manner, simply by searching for compounds that lose activity in the absence of UBE2M. 2000 small molecules, mostly of unknown function/target, were tested for their antiproliferative effects in human leukemia cells (KBM7). These cells were either transduced with a control sgRNA (KBM7WT), or with an sgRNA targeting UBE2M, leading to a hypomorph (deletion of six amino acids) with a functional impairment (UBE2Mmut).
KBM7^WT and UBE2M^mut cells were treated with a compound library (2000 cytotoxic diverse small-molecules, mostly of unknown function/target). Briefly, the screening was divided in three parts 1) primary screening, 2) follow up and 3) validation. During the primary screening, cells were treated with 10 μM and 500 nM of every compound. […] After 3 days of treatment, cell viability was measured (CellTiter Glo, Promega). The screen was perform in 384-well plates (Corning 3712) and the reagent/compound dispensing system used was: Echo 520 Liquid Handler, Multidrop™ Combi Reagent Dispenser. Control compounds were included in several wells, in all the plates. Method for validation of IC021313.2, IC020822.1, IC020772.1, T6938051 as described above in (i).

Question: For `Cc1ccc(C(=O)N2CSCC2C(=O)N=c2[nH]cc(C)s2)o1` (stereo not drawn) [Compound T6938051], which CC50 (KBM7 CUL4Bmut cells) is on record?
Answer: Its CC50 is 110 µM.

Question: What about the CC50 (KBM7 UBE2G1mut cells) of the same molecule?
Answer: Its CC50 is 3.47 µM.

Question: And the CC50 (UBE2Mresc KBM7 cells)?
Answer: The CC50 was 1.15 µM.

Question: What about the “hit in differential viability screen” value [1] of the same molecule?
Answer: Its value is “stood out in terms of fold-change significance”.

Question: With `O=C(CSc1nnc2c(n1)[nH]c1ccccc12)Nc1ccc(Cl)cn1` [IC020772.1] as the molecule, how does the CC50 (KBM7 CUL4Bmut cells) read?
Answer: Its CC50 is 7.53 µM.

Question: And the CC50 (KBM7 UBE2G1mut cells)?
Answer: The CC50 was 2 µM.

Question: And the CC50 (UBE2Mresc KBM7 cells)?
Answer: The CC50 was 0.75 µM.

Question: What about the “hit in differential viability screen” value [1] of the same molecule?
Answer: Its value is “stood out in terms of fold-change significance”.

Question: How did the CC50 (KBM7 CUL4Bmut cells) turn out when `O=C(CSc1nc2ccccc2[nH]1)Nc1ccc(Cl)cn1` [IC021313.2] was run?
Answer: Its CC50 is 15.7 µM.

Question: What about the CC50 (KBM7 UBE2G1mut cells) of the same molecule?
Answer: Its CC50 is 4.34 µM.

Question: What about the CC50 (UBE2Mresc KBM7 cells) of the same molecule?
Answer: The CC50 was 1.94 µM.

Question: What about the “hit in differential viability screen” value [1] of the same molecule?
Answer: Its value is “stood out in terms of fold-change significance”.
